Laboratory results reported in article PMC8000084, “Peptide Dendrimers with Non-Symmetric Bola Structure Exert Long Term Effect on Glioblastoma and Neuroblastoma Cell Lines” (Biomolecules, 2021).

Experiments:
[1] = Cupric reducing antioxidant capacity (CUPRAC)
Experimental: The CUPRAC method was performed according to procedure described by Apak et al. with small modifications, which was necessary to correlate this method to other used assays. CUPRAC working solution was prepared freshly each time. The stock solution including 0.96 mL ammonium acetate buffer (1 M, pH 7), 0.96 mL 7.5 mM neocuproine solution in MeOH, and 0.96 mL of 10 mM CuCl2 in water was kept away from light. Then, 240 μL dendrimer, Trolox, or solvent (blank sample) standard solution was added to CUPRAC stock solution, and after 25 min, absorbance at 450 nm was recorded. Results were expressed as μM Trolox L^−1. All determinations were carried out in triplicate.

[2] = test system: rat primary cerebellar granule cells (CGC); type: cell-based; conditions: 5 μM, 30 min exposure in Locke 25, PI staining 24 h later; Figure 3
Experimental: Primary CGC cultures were prepared from seven-day-old Wistar rats of both sexes as previously described. Procedures using rat pups were performed in accordance with international standards of animal care guidelines and were approved by the Local Care of Experimental Animals Committee. The culture was incubated in growth basal Eagle’s medium (Gibco, Thermo Fisher Scientific, Grand Island, NY, USA), supplemented with 10% fetal calf serum, 25 mM KCl, 4 mM glutamine, penicillin (50 U/mL), and streptomycin ([…]) (Sigma-Aldrich, Poznan, Poland). The density of the cell suspension seeded on the 24-well plates, coated with poly-L-lysine, was 1 × 10^6 cells per well. […]
Stock solutions were prepared by dissolving dendrimers in dimethylsulfoxide (DMSO) (Sigma-Aldrich, Poznan, Poland), and subsequent dilutions were made in cell medium. The effect of the dendrimers on CGC viability was assessed 24 h after a 30 min exposure of the cultures to the tested compounds using propidium iodide (PI) staining. […] Then, the cells were fixed with 80% methanol, stained with PI (0.5 µg/mL), and viable and dead neurons were counted using an Axiovert fluorescence microscope (Carl Zeiss AG, Germany). The viability of the neurons was determined as percentages of live cells in proportion to all cells.

[3] = Ferric reducing antioxidant power (FRAP); conditions: pH 3.6, 593 nm after 15 min; Figure 6
Experimental: The FRAP assay was performed according to previously described method with some modifications. FRAP working solution was prepared freshly each time. The stock solution included 2.40 mL acetate buffer (300mM, pH 3.6), 0.24 mL 10 mM TPTZ solution in 40 mM HCl, and 0.24 mL of 20 mM FeCl3 × 6H2O in water. The mixture was kept away from light and warmed at 37 °C before using. Then, 240 μL sample Troloxor solvent (blank sample) standard solution was added to FRAP stock solution. The absorbance was measured at 593 nm after 15 min. Final concentration of methanolic solutions of the studied dendrimers were in range 0–24 μM and Trolox® solutions from 0 to 50 μM.All determinations were carried out in triplicate.

[4] = 5.5 μM; cited from earlier work
Experimental: The results of DPPH and ABTS tests for the (+)10-charged 16, 18, 20, 22, 24, and 26 bola dendrimers at three concentrations (3.78, 7.69, and 15.38 μM) are shown in Figure 5, whereas results of FRAP and CUPRAC tests are shown in Figure 6. Data include also two neutral derivatives 19 and 25 for the PABA and PAS series, respectively. Considering TEAC values, dendrimers show different level of scavenging capacity in both tests, being better scavengers of radical cations than single electron bearing neutral radicals. The highest cationic radical scavenging ability in ABTS test was found for […] ...

## Nc1ccc(S(=O)(=O)NCCCCCOc2cc(OCCNS(=O)(=O)c3ccc(N)cc3)cc(C(=O)NCCNC(=O)[C@H](Cc3c[nH]c4ccccc34)NC(=O)[C@H](CCCCNC(=O)c3cc(OCCNC(=O)[C@@H](N)CCCCNC(=O)[C@@H](N)Cc4c[nH]c5ccccc45)cc(OCCNC(=O)[C@@H](N)CCCCNC(=O)[C@@H](N)Cc4c[nH]c5ccccc45)c3)NC(=O)c3cc(OCCNC(=O)[C@@H](N)CCCCNC(=O)[C@@H](N)Cc4c[nH]c5ccccc45)cc(OCCNC(=O)[C@@H](N)CCCCNC(=O)[C@@H](N)Cc4c[nH]c5ccccc45)c3)c2)cc1 [compound 26]
[1]; 3.78 and 7.69 μM
  enhancement of antioxidant power in transition between FRAP/CUPRAC model: ~11 fold
[2]
  viable CGC cells conserved: 55–85%

## Nc1ccc(S(=O)(=O)O)cc1 [p-aminobenzenesulfonic acid]
[3]
  redox potential / reducing capacity in FRAP test (in words): insignificant
[1]; pH 7, 450 nm after 25 min, Figure 6
  redox potential / reducing capacity in CUPRAC test (in words): insignificant

## O=C(O)/C=C/c1ccc(O)c(O)c1 [caffeic acid]
[4]
  Trolox equivalence in DPPH test: 6–7
